Data taken from patent US7632657B2, “Method of detecting meticillin-resistant microorganisms” (priority 2002, dated 2009).

Assays:
[1] = test system: AR4297 MetiR: (homogeneous) meticillin-resistant strain; assay: Growth of S. aureus strains streaked on CHROMagar Staph aureus medium with antibiotic: homogeneous meticillin-resistant strain; assay type: cell-based, Staphylococcus aureus; design: key: + = colony growth; − = no growth; * = microcolonies; settings: CHROMagar Staph aureus + Cefoxitin 5 mg/l; streaked dishes, 37° C. for 24 hours
Excerpt: (§1) Study of the growth of meticillin-resistant S. aureus strains on CHROMagar Staph aureus medium (available from the company CHROMagar, 4, Place du 18 Juin 1940, 75006 Paris France): • AR4295 MetiS: meticillin-sensitive strain • AR4297 MetiR: (homogeneous) meticillin-resistant strain • MRhet: (heterogeneous) meticillin-resistant strain • Z252: meticillin-resistant strain, homogeneous, low level of resistance
(§2) Petri dishes are inoculated with bacterial cultures by streaking the dishes, in order to observe the growth of isolated bacteria, after incubation at 37° C. for 24 hours.
(§3) The bacteria that grow give purple colonies on the culture medium, confirming that the microorganisms are Staphylococcus aureus.

[2] = Stability of the detection medium prepared with the antibiotic; assay type: physicochemical; settings: added when the medium is at 48° C.
Protocol: For example, a stability of at least 2 months has been observed for a medium in accordance with the invention prepared with cefoxitin at a concentration of 5 mg/l, added to the medium when the latter is at a temperature of 48° C. The stability of the medium in accordance with the invention has been brought to at least 5 months when said medium has been prepared with cefmetazole at a concentration of 2.5 mg/l, added to the medium when the latter is at a temperature of 48° C.
The expression “stability of the medium” is intended to denote the ability of the medium in accordance with the invention to allow the selective detection of meticillin-resistant microorganisms, in particular staphylococcus aureus, for a given period of time, with the same reliability throughout the period of time.

[3] = test system: Z252: meticillin-resistant strain, homogeneous, low level of resistance; assay: Growth of S. aureus strains streaked on CHROMagar Staph aureus medium with antibiotic: low-level resistant strain; assay type: cell-based, Staphylococcus aureus; design: key: + = colony growth; − = no growth; * = microcolonies; settings: streaked dishes, 37° C. for 24 hours
Excerpt: as §1, §2, §3

[4] = test system: AR4295 MetiS: meticillin-sensitive strain; assay: Growth of S. aureus strains streaked on CHROMagar Staph aureus medium with antibiotic: meticillin-sensitive strain; assay type: cell-based, Staphylococcus aureus; design: key: + = colony growth; − = no growth; * = microcolonies; settings: streaked dishes, 37° C. for 24 hours
Excerpt: as §1, §2, §3

[5] = test system: MRhet: (heterogeneous) meticillin-resistant strain; assay: Growth of S. aureus strains streaked on CHROMagar Staph aureus medium with antibiotic: heterogeneous meticillin-resistant strain; assay type: cell-based, Staphylococcus aureus; design: key: + = colony growth; − = no growth; * = microcolonies; settings: streaked dishes, 37° C. for 24 hours
Excerpt: as §1, §2, §3

[6] = Conservation of antibiotic activity on heating; assay type: physicochemical; settings: temperature of greater than 100° C.; resistance verified by the inventors at 121° C.
Protocol: (its resistance having even been verified by the inventors at 121° C.).

[7] = CHROMagar Staph aureus + Cefoxitin 5 mg/l
[8] = CHROMagar Staph aureus + oxacillin 6 mg/ml

## CO[C@@]1(NC(=O)Cc2cccs2)C(=O)N2C(C(=O)O)=C(COC(N)=O)CS[C@@H]21 [Cefoxitin, cefoxitin]
[1]
  colony growth, AR4297 MetiR: +
[2]; medium prepared with cefoxitin at 5 mg/l
  stability of the medium: at least 2 months
[3]; [7]
  colony growth, Z252: +
[4]; [7]
  colony growth, AR4295 MetiS: −
[5]; [7]
  colony growth, MRhet: +

## CO[C@@]1(NC(=O)CSCC#N)C(=O)N2C(C(=O)O)=C(CSc3nnnn3C)CS[C@@H]21 [cefmetazole]
[2]; medium prepared with cefmetazole at 2.5 mg/l
  stability of the medium: at least 5 months

## CO[C@@]1(NC(=O)CSC(F)F)C(=O)N2C(C(=O)O)=C(CSc3nnnn3CCO)CO[C@@H]21 [flomoxef]
[6]
  ability to conserve antibiotic activity on heating: conserve its antibiotic activity

## Cc1onc(-c2ccccc2)c1C(=O)N[C@@H]1C(=O)N2[C@@H]1SC(C)(C)[C@@H]2C(=O)O [oxacillin]
[3]; [8]
  colony growth, Z252: −
[4]; [8]
  colony growth, AR4295 MetiS: −
[5]; [8]
  colony growth, MRhet: −
